Results as given in patent US20230348376A1 (TEIJIN PHARMA LIMITED, priority 2020, published 2023).

Target: T1, human VDR (Homo sapiens, UniProt P11473)
T1 sequence (P11473 1-427): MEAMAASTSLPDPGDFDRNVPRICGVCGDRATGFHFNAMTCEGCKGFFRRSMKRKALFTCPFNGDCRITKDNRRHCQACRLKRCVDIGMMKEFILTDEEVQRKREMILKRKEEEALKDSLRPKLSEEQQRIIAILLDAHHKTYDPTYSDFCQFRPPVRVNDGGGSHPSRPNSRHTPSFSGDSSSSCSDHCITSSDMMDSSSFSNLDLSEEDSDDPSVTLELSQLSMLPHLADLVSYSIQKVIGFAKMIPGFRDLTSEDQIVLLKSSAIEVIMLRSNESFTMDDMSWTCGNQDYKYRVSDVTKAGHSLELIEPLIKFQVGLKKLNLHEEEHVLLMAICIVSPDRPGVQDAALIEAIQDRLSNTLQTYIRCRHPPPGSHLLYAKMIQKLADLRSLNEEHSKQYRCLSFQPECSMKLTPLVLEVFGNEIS
T1 sequence (P19793 1-462 partner): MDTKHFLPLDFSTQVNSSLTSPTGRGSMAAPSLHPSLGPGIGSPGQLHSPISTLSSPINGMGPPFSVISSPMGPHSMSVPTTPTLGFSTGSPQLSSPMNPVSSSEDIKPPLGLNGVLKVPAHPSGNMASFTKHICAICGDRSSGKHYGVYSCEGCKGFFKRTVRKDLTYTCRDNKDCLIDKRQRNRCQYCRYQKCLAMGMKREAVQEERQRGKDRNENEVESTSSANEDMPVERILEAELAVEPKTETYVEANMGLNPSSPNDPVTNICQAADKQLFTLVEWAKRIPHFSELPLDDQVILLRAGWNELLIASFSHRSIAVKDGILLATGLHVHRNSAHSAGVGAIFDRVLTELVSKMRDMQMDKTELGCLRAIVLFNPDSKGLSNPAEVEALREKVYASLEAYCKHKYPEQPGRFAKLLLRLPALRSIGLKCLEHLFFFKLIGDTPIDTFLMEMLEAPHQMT
Assay: Evaluation of VDR transcription activity in human osteoblasts (HOS cells), luciferase reporter
Settings: Activity (EC50, VDR transcription activity), HOS cells transfected with human VDR, human RXRα and DR3 luciferase reporter; 21 hours

| Compound | EC50 [µM] |
| --- | --- |
| C[C@H](CN1CC(CC(F)F)C1)[C@H]1CC[C@H]2/C(=C/C=C3C[C@@H](O)C[C@H](O)C3)CCC[C@]12C [Compound A021, (1R,3R)-5-(2-((1R,3aS,7aR,E)-1-((S)-1-(3-(2,2-difluoroethyl)azetidin-1-yl)propan-2-yl)-7a-methyloctahydro-4H-inden-4-ylidene)ethylidene)cyclohexane-1,3-diol] | 0.1 to 1 |
| C[C@H](CN1CC(OC(F)(F)F)C1)[C@H]1CC[C@H]2/C(=C/C=C3C[C@@H](O)C[C@H](O)C3)CCC[C@]12C [Compound A013] | 0.1 to 1 |
| C[C@H](CCN1CC[C@H](F)C1)[C@H]1CC[C@H]2/C(=C/C=C3C[C@@H](O)C[C@H](O)C3)CCC[C@]12C [Compound B014, (1R,3R)-5-(2-((1R,3aS,7aR,E)-1-((R)-4-((S)-3-fluoropyrrolidin-1-yl)butan-2-yl)-7a-methyloctahydro-4H-inden-4-ylidene)ethylidene)cyclohexane-1,3-diol] | 0.01 to 0.1 |
| C=C1[C@H](O)CC(=C/C=C2\CCC[C@]3(C)[C@@H]([C@H](C)CN4CC[C@H](C(C)(F)F)C4)CC[C@@H]23)C[C@H]1O [Compound B031, (1R,3R)-5-(2-((1R,3aS,7aR,E)-1-((S)-1-((S)-3-(1,1-difluoroethyl)pyrrolidin-1-yl)propan-2-yl)-7a-methyloctahydro-4H-inden-4-ylidene)ethylidene)-2methylenecyclohexane-1,3-diol] | 0.001 to 0.01 |
| C=C1[C@H](O)CC(=C/C=C2\CCC[C@]3(C)[C@@H]([C@H](C)CN4CCC(O)(C5CC5)C4)CC[C@@H]23)C[C@H]1O (stereo partly drawn) [Compound B077, (1R,3R)-5-(2-((1R,3aS,7aR,E)-1-((2S)-1-(3-cyclopropyl-3-hydroxypyrrolidin-1-yl)propan-2-yl)-7a-methyloctahydro-4H-inden-4-ylidene)ethylidene)-2-methylenecyclohexane-1,3-diol] | 0.01 to 0.1 |
| C=C1/C(=C\C=C2/CCC[C@]3(C)[C@@H](C(C)CN4CC(F)C4)CC[C@@H]23)C[C@@H](O)C[C@@H]1O (stereo in doubt) [Compound A001, (1R,3S,Z)-5-(2-((1R,3aS,7aR,E)-1-((R)-1-(3-fluoroazetidin-1-yl)propan-2-yl)-7a-methyloctahydro-4H-inden-4-ylidene)ethylidene)-4-methylenecyclohexane-1,3-diol] | 0.1 to 1 |
| C=C1C(O)CC(=C/C=C2\CCC[C@]3(C)[C@@H]([C@H](C)CN4CC[C@@H](OC(F)(F)F)C4)CC[C@@H]23)C[C@H]1O (stereo in doubt) [Compound B068, (1R,3S)-5-(2-((1R,3aS,7aR,E)-7a-methyl-1-((S)-1-((R)-3-(trifluoromethoxy)pyrrolidin-1-yl)propan-2-yl)octahydro-4H-inden-4-ylidene)ethylidene)-2-methylenecyclohexane-1,3-diol] | 0.001 to 0.01 |
| C=C1/C(=C\C=C2/CCC[C@]3(C)[C@@H]([C@H](C)CN4CC[C@@](C)(O)C4)CC[C@@H]23)C[C@@H](O)C[C@@H]1O [Compound B074, (1R,3S,Z)-5-(2-((1R,3aS,7aR,E)-1-((S)-1-((R)-3-hydroxy-3-methylpyrrolidin-1-yl)propan-2-yl)-7a-methyloctahydro-4H-inden-4-ylidene)ethylidene)-4-methylenecyclohexane-1,3-diol] | 0.1 to 1 |
| C=C1/C(=C\C=C2/CCC[C@]3(C)[C@@H]([C@H](C)CN4CC(C(C)(F)F)C4)CC[C@@H]23)C[C@@H](O)C[C@@H]1O [Compound A006, (1R,3S,Z)-5-(2-((1R,3aS,7aR,E)-1-((S)-1-(3-(1,1-difluoroethyl)azetidin-1-yl)propan-2-yl)-7a-methyloctahydro-4H-inden-4-ylidene)ethylidene)-4-methylenecyclohexane-1,3-diol] | 0.01 to 0.1 |

Next, values leading:

| EC50 [µM] | Compound |
| --- | --- |
| 0.001 to 0.01 | C=C1[C@H](O)CC(=C/C=C2\CCC[C@]3(C)[C@@H]([C@H](C)CN4CCOC(C)(C)C4)CC[C@@H]23)C[C@H]1O [Compound D014, (1R,3R)-5-(2-((1R,3aS,7aR,E)-1-((S)-1-(2,2-dimethylmorpholino)propan-2-yl)-7a-methyloctahydro-4H-inden-4-ylidene)ethylidene)-2-methylenecyclohexane-1,3-diol] |
| 0.001 to 0.01 | C=C1/C(=C\C=C2/CCC[C@]3(C)[C@@H]([C@@H](C)CN4CCCC(O)(C(F)(F)F)C4)CC[C@@H]23)C[C@@H](O)C[C@@H]1O (single isomer, unassigned) [Compound C033b] |
| 0.001 to 0.01 | C=C1[C@H](O)CC(=C/C=C2\CCC[C@]3(C)[C@@H]([C@H](C)CCN4C[C@@H](C)O[C@@H](C)C4)CC[C@@H]23)C[C@H]1O [Compound D028, (1R,3R)-5-(2-((1R,3aS,7aR,E)-1-((R)-4-((2S,6R)-2,6-dimethylmorpholino)butan-2-yl)-7a-methyloctahydro-4H-inden-4-ylidene)ethylidene)-2-methylenecyclohexane-1,3-diol] |
| 0.01 to 0.1 | C=C1/C(=C\C=C2/CCC[C@]3(C)[C@@H]([C@@H](C)CN4CCC(C(F)F)CC4)CC[C@@H]23)C[C@@H](O)C[C@@H]1O [Compound C017, (1R,3S,Z)-5-(2-((1R,3aS,7aR,E)-1-((R)-1-(4-(difluoromethyl)piperidin-1-yl)propan-2-yl)-7a-methyloctahydro-4H-inden-4-ylidene)ethylidene)-4-methylenecyclohexane-1,3-diol] |
| 0.001 to 0.01 | C=C1/C(=C\C=C2/CCC[C@]3(C)[C@@H]([C@H](C)CN4CCC[C@H](C(F)F)C4)CC[C@@H]23)C[C@@H](O)[C@H](C)[C@@H]1O [Compound C050, (1R,2S,3 S,Z)-5-(2-((1R,3aS,7aR,E)-1-((S)-1-((S)-3-(difluoromethyl)piperidin-1-yl)propan-2-yl)-7a-methyloctahydro-4H-inden-4-ylidene)ethylidene)-2-methyl-4-methylenecyclohexane-1,3-diol] |
| 0.1 to 1 | CCC1(O)CCCN(C[C@@H](C)[C@H]2CC[C@H]3/C(=C/C=C4C[C@@H](O)C[C@H](O)C4)CCC[C@]23C)C1 (single isomer, unassigned) [Compound C044b] |
| 0.001 to 0.01 | C=C1/C(=C\C=C2/CCC[C@]3(C)[C@@H]([C@@H](C)CN4CCC(C(F)(F)F)CC4)CC[C@@H]23)C[C@@H](O)[C@H](C)[C@@H]1O [Compound C012, (1R,2S,3S,Z)-2-methyl-5-(2-((1R,3aS,7aR,E)-7a-methyl-1-((R)-1-(4-(trifluoromethyl)piperidin-1-yl)propan-2-yl)octahydro-4H-inden-4-ylidene)ethylidene)-4-methylenecyclohexane-1,3-diol] |
| 0.01 to 0.1 | C=C1[C@H](O)CC(=C/C=C2\CCC[C@]3(C)[C@@H]([C@H](C)CN4CCC[C@@](C)(O)C4)CC[C@@H]23)C[C@H]1O [Compound C040, (1R,3R)-5-(2-((1R,3aS,7aR,E)-1-((S)-1-((R)-3-hydroxy-3-methylpiperidin-1-yl)propan-2-yl)-7a-methyloctahydro-4H-inden-4-ylidene)ethylidene)-2-methylenecyclohexane-1,3-diol] |
| 0.001 to 0.01 | C=C1[C@H](O)CC(=C/C=C2\CCC[C@]3(C)[C@@H]([C@H](C)CN4CCC[C@H](C(F)F)C4)CC[C@@H]23)C[C@H]1O [Compound C049, (1R,3R)-5-(2-((1R,3aS,7aR,E)-1-((S)-1-((S)-3-(difluoromethyl)piperidin-1-yl)propan-2-yl)-7a-methyloctahydro-4H-inden-4-ylidene)ethylidene)-2-methylenecyclohexane-1,3-diol] |
| 0.1 to 1 | C[C@H](CCN1CCOCC1(C)C)[C@H]1CC[C@H]2/C(=C/C=C3C[C@@H](O)C[C@H](O)C3)CCC[C@]12C [Compound D049, (1R,3R)-5-(2-((1R,3aS,7aR,E)-1-((R)-4-(3,3-dimethylmorpholino)butan-2-yl)-7a-methyloctahydro-4H-inden-4-ylidene)ethylidene)cyclohexane-1,3-diol] |
| 0.001 to 0.01 | C=C1[C@H](O)CC(=C/C=C2\CCC[C@]3(C)[C@@H]([C@@H](C)CN4CCC(C(C)(F)F)CC4)CC[C@@H]23)C[C@H]1O [Compound C057, (1R,3R)-5-(2-((1R,3aS,7aR,E)-1-((R)-1-(4-(1,1-difluoroethyl)piperidin-1-yl)propan-2-yl)-7a-methyloctahydro-4H-inden-4-ylidene)ethylidene)-2-methylenecyclohexane-1,3-diol] |
| 0.01 to 0.1 | C=C1/C(=C\C=C2/CCC[C@]3(C)[C@@H]([C@H](C)CN4CCCC(C)(O)C4)CC[C@@H]23)C[C@@H](O)C[C@@H]1O (single isomer, unassigned) [Compound C037b] |
| < 0.001 | C=C1[C@H](O)CC(=C/C=C2\CCC[C@]3(C)[C@@H]([C@H](C)CN4CCCC(O)(CC)C4)CC[C@@H]23)C[C@H]1O (single isomer, unassigned) [Compound C046a] |
